Test results published in patent US9012489B2, “Phenyl-3-aza-bicyclo[3.1.0]hex-3-yl-methanones and the use thereof as medicament” (Boehringer Ingelheim International GmbH, priority 2011, dated 2015).

Biological target: T1, GlyT1 transporter (Homo sapiens, UniProt P48067)
T1 construct: endogenously expressing the GlyT1 transporter; host or cells: SK-N-MC human neuroblastoma cells
T1 sequence (P48067 1-706): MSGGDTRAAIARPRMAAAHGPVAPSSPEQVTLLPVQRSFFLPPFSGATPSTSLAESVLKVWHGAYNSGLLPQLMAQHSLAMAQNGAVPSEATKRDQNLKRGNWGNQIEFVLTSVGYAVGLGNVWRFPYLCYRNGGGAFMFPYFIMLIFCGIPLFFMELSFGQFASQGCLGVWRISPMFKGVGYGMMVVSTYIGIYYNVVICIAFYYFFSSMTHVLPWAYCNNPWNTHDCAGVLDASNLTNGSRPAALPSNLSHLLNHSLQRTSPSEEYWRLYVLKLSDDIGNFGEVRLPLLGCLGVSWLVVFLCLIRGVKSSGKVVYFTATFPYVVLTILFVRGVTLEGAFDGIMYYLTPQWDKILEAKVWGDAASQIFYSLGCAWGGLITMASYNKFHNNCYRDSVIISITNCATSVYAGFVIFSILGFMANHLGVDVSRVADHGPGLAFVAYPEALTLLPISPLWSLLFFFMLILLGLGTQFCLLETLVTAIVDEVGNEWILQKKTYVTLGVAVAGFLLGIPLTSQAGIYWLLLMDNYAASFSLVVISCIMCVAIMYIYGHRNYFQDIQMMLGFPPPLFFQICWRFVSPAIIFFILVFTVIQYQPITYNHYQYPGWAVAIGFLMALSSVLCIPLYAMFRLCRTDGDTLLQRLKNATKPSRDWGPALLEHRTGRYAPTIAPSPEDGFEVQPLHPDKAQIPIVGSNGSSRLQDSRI
Experiment: GlyT1 assay: 3H-glycine uptake into SK-N-MC cells (Cytostar-T format)
Format: cell-based
Settings: glycine uptake in human SK-N-MC cells endogenously expressing GlyT1; 500 nM glycine, 1% DMSO, signal recorded over 60 min
Summary of the method: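 Uptake slopes, measured over 60 min from the linear kinetic range, give IC50 from 8 compound concentrations, with 10 μM RG-1678 setting background. Substrate is 500 nM glycine (250 nM ³H, 250 nM unlabelled) in HBSS/5 mM alanine, 1% DMSO, after roughly 5-10 min compound preincubation. Cells: confluent SK-N-MC endogenously expressing human GlyT1.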

SMILES	IC50 [µM]
COC1(c2nc(C34CC3CN(C(=O)c3cc(S(C)(=O)=O)ccc3O[C@@H](C)C(F)(F)F)C4)no2)CC1 (single isomer, unassigned) [Example 117, [5-Methanesulfonyl-2-(2,2,2-trifluoro-1-methyl-ethoxy)-phenyl]-{1-[5-(1-methoxy-cyclopropyl)-[1,2,4]oxadiazol-3-yl]-3-aza-bicyclo[3.1.0]hex-3-yl}-methanone]	0.006
COC1(c2nc(C34CC3CN(C(=O)c3cc(S(C)(=O)=O)ccc3O[C@H](C)C(F)(F)F)C4)no2)CC1 (single isomer, unassigned) [Example 120, [5-Methanesulfonyl-2-(2,2,2-trifluoro-1-methyl-ethoxy)-phenyl]-{1-[5-(1-methoxy-cyclopropyl)-[1,2,4]oxadiazol-3-yl]-3-aza-bicyclo[3.1.0]hex-3-yl}-methanone]	0.006
COC1(c2nc(C34CC3CN(C(=O)c3cc(S(C)(=O)=O)ccc3O[C@H](C)C(F)(F)F)C4)no2)CC1 (single isomer, unassigned) [Example 121, [5-Methanesulfonyl-2-(2,2,2-trifluoro-1-methyl-ethoxy)-phenyl]-{1-[5-(1-methoxy-cyclopropyl)-[1,2,4]oxadiazol-3-yl]-3-aza-bicyclo[3.1.0]hex-3-yl}-methanone]	0.349
C[C@@H](Oc1ccc(S(C)(=O)=O)cc1C(=O)N1CC2CC2(c2nnc(C(F)(F)F)o2)C1)C(F)(F)F (single isomer, unassigned) [Example 123, [5-Methanesulfonyl-2-(2,2,2-trifluoro-1-methyl-ethoxy)-phenyl]-[1-(5-trifluoromethyl-[1,3,4]oxadiazol-2-yl)-3-aza-bicyclo[3.1.0]hex-3-yl]-methanone]	0.013
C[C@@H](Oc1ccc(S(C)(=O)=O)cc1C(=O)N1CC2CC2(c2nnc(C(F)(F)F)o2)C1)C(F)(F)F (single isomer, unassigned) [Example 124, [5-Methanesulfonyl-2-(2,2,2-trifluoro-1-methyl-ethoxy)-phenyl]-[1-(5-trifluoromethyl-[1,3,4]oxadiazol-2-yl)-3-aza-bicyclo[3.1.0]hex-3-yl]-methanone]	0.503
C[C@H](Oc1ccc(S(C)(=O)=O)cc1C(=O)N1CC2CC2(c2nnc(C(F)(F)F)o2)C1)C(F)(F)F (single isomer, unassigned) [Example 126, [5-Methanesulfonyl-2-(2,2,2-trifluoro-1-methyl-ethoxy)-phenyl]-[1-(5-trifluoromethyl-[1,3,4]oxadiazol-2-yl)-3-aza-bicyclo[3.1.0]hex-3-yl]-methanone]	0.016
C[C@H](Oc1ccc(S(C)(=O)=O)cc1C(=O)N1CC2CC2(c2nnc(C(F)(F)F)o2)C1)C(F)(F)F (single isomer, unassigned) [Example 127, [5-Methanesulfonyl-2-(2,2,2-trifluoro-1-methyl-ethoxy)-phenyl]-[1-(5-trifluoromethyl-[1,3,4]oxadiazol-2-yl)-3-aza-bicyclo[3.1.0]hex-3-yl]-methanone]	2.66
C[C@@H](Oc1ccc(S(C)(=O)=O)cc1C(=O)N1CC2CC2(c2ncc(C(F)(F)F)o2)C1)C(F)(F)F (single isomer, unassigned) [Example 129, [5-Methanesulfonyl-2-(2,2,2-trifluoro-1-methyl-ethoxy)-phenyl]-[1-(5-trifluoromethyl-oxazol-2-yl)-3-aza-bicyclo[3.1.0]hex-3-yl]-methanone]	0.147
C[C@@H](Oc1ccc(S(C)(=O)=O)cc1C(=O)N1CC2CC2(c2ncc(C(F)(F)F)o2)C1)C(F)(F)F (single isomer, unassigned) [Example 130, [5-Methanesulfonyl-2-(2,2,2-trifluoro-1-methyl-ethoxy)-phenyl]-[1-(5-trifluoromethyl-oxazol-2-yl)-3-aza-bicyclo[3.1.0]hex-3-yl]-methanone]	0.003

Continued, values first:

IC50 [µM]	SMILES
0.003	C[C@H](Oc1ccc(S(C)(=O)=O)cc1C(=O)N1CC2CC2(c2ncc(C(F)(F)F)o2)C1)C(F)(F)F (single isomer, unassigned) [Example 132, [5-Methanesulfonyl-2-(2,2,2-trifluoro-1-methyl-ethoxy)-phenyl]-[1-(5-trifluoromethyl-oxazol-2-yl)-3-aza-bicyclo[3.1.0]hex-3-yl]-methanone]
0.403	C[C@H](Oc1ccc(S(C)(=O)=O)cc1C(=O)N1CC2CC2(c2ncc(C(F)(F)F)o2)C1)C(F)(F)F (single isomer, unassigned) [Example 133, [5-Methanesulfonyl-2-(2,2,2-trifluoro-1-methyl-ethoxy)-phenyl]-[1-(5-trifluoromethyl-oxazol-2-yl)-3-aza-bicyclo[3.1.0]hex-3-yl]-methanone]
0.12	C[C@H](Oc1ccc(S(C)(=O)=O)cc1C(=O)N1CC2CC2(c2nc(C(F)(F)F)co2)C1)C(F)(F)F (single isomer, unassigned) [Example 136, [5-Methanesulfonyl-2-(2,2,2-trifluoro-1-methyl-ethoxy)-phenyl]-[1-(4-trifluoromethyl-oxazol-2-yl)-3-aza-bicyclo[3.1.0]hex-3-yl]-methanone]
0.253	CS(=O)(=O)c1ccc(O[C@@H]2CCOC2)c(C(=O)N2CC3CC3(c3noc(C(F)(F)F)n3)C2)c1 (single isomer, unassigned) [Example 139, [5-Methanesulfonyl-2-(tetrahydro-furan-3-yloxy)-phenyl]-[1-(5-trifluoromethyl-[1,2,4]oxadiazol-3-yl)-3-aza-bicyclo[3.1.0]hex-3-yl]-methanone]
3	CS(=O)(=O)c1ccc(O[C@@H]2CCOC2)c(C(=O)N2CC3CC3(c3noc(C(F)(F)F)n3)C2)c1 (single isomer, unassigned) [Example 140, [5-Methanesulfonyl-2-(tetrahydro-furan-3-yloxy)-phenyl]-[1-(5-trifluoromethyl-[1,2,4]oxadiazol-3-yl)-3-aza-bicyclo[3.1.0]hex-3-yl]-methanone]
0.003	CC(C)Oc1ccc(S(C)(=O)=O)cc1C(=O)N1CC2CC2(c2noc(C3(C(F)(F)F)CC3)n2)C1 (single isomer, unassigned) [Example 142, (2-Isopropoxy-5-methanesulfonyl-phenyl)-{1-[5-(1-trifluoromethyl-cyclopropyl)-[1,2,4]oxadiazol-3-yl]-3-aza-bicyclo[3.1.0]hex-3-yl}-methanone]
0.007	C[C@H](Oc1ccc(S(C)(=O)=O)cc1C(=O)N1CC2CC2(c2nc(C3CC3)no2)C1)C(F)(F)F (single isomer, unassigned) [Example 143, [1-(3-Cyclopropyl-[1,2,4]oxadiazol-5-yl)-3-aza-bicyclo[3.1.0]hex-3-yl]-[5-methanesulfonyl-2-(2,2,2-trifluoro-1-methyl-ethoxy)-phenyl]-methanone]
0.164	C[C@H](Oc1ccc(S(C)(=O)=O)cc1C(=O)N1CC2CC2(c2nc(C3CC3)no2)C1)C(F)(F)F (single isomer, unassigned) [Example 144, [1-(3-Cyclopropyl-[1,2,4]oxadiazol-5-yl)-3-aza-bicyclo[3.1.0]hex-3-yl]-[5-methanesulfonyl-2-(2,2,2-trifluoro-1-methyl-ethoxy)-phenyl]-methanone]
0.008	C[C@@H](Oc1ccc(S(C)(=O)=O)cc1C(=O)N1CC2CC2(c2nnc(C3(C(F)(F)F)CC3)o2)C1)C(F)(F)F (single isomer, unassigned) [Example 149, [5-Methanesulfonyl-2-(2,2,2-trifluoro-1-methyl-ethoxy)-phenyl]-{1-[5-(1-trifluoromethyl-cyclopropyl)-[1,3,4]oxadiazol-2-yl]-3-aza-bicyclo[3.1.0]hex-3-yl}-methanone]
0.232	C[C@@H](Oc1ccc(S(C)(=O)=O)cc1C(=O)N1CC2CC2(c2nnc(C3(C(F)(F)F)CC3)o2)C1)C(F)(F)F (single isomer, unassigned) [Example 150, [5-Methanesulfonyl-2-(2,2,2-trifluoro-1-methyl-ethoxy)-phenyl]-{1-[5-(1-trifluoromethyl-cyclopropyl)-[1,3,4]oxadiazol-2-yl]-3-aza-bicyclo[3.1.0]hex-3-yl}-methanone]
0.01	C[C@H](Oc1ccc(S(C)(=O)=O)cc1C(=O)N1CC2CC2(c2nnc(C3(C(F)(F)F)CC3)o2)C1)C(F)(F)F (single isomer, unassigned) [Example 152, [5-Methanesulfonyl-2-(2,2,2-trifluoro-1-methyl-ethoxy)-phenyl]-{1-[5-(1-trifluoromethyl-cyclopropyl)-[1,3,4]oxadiazol-2-yl]-3-aza-bicyclo[3.1.0]hex-3-yl}-methanone]
1.2	C[C@H](Oc1ccc(S(C)(=O)=O)cc1C(=O)N1CC2CC2(c2nnc(C3(C(F)(F)F)CC3)o2)C1)C(F)(F)F (single isomer, unassigned) [Example 153, [5-Methanesulfonyl-2-(2,2,2-trifluoro-1-methyl-ethoxy)-phenyl]-{1-[5-(1-trifluoromethyl-cyclopropyl)-[1,3,4]oxadiazol-2-yl]-3-aza-bicyclo[3.1.0]hex-3-yl}-methanone]
